Consider 30 molecules from patent US20240083861A1, “HSD17B13 INHIBITORS AND USES THEREOF” (FL2022-001, Inc., priority 2020, published 2024).

The term IC50 denotes the concentration needed to halve the response being measured.

The assay deals with T1, Recombinant human HSD17B13 enzyme (Homo sapiens, UniProt Q7Z5P4).
T1 sequence (Q7Z5P4 20-300): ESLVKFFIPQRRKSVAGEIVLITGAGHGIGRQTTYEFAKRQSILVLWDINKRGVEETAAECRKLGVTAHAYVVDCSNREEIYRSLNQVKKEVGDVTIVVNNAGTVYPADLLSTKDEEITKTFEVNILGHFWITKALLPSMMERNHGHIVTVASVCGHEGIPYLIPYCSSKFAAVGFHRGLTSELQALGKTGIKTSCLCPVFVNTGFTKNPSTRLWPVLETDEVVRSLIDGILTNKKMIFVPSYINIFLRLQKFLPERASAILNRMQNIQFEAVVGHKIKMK
Nature of the assay: HSD17b13 NAD(P)H-Glo biochemical assay. The conditions noted are these: 50 uM estradiol, 1 mM NAD+, NAD(P)H-Glo luminescence; read-out: HSD17β13 IC50. On the procedure: Example B-1: HSD17b13 NAD(P)H-Glo Biochemical Assay
Recombinant human HSD17B13 enzyme. Substrate: estradiol (Sigma β-Estradiol E8875), 100 mM in DMSO. Cofactor: NAD+ Grade I free acid (Sigma 10127965001), 20 mM in H2O. Assay buffer final concentration: 20 mM Tris pH7.4 with 0.002% Tween-20 and 0.02% BSA. Assay performed in 384 well solid bottom plate (Corning 3570). Enzymatic activity detected by NAD(P)H-Glo™ Detection System (Promega G9062).
Inhibitor compounds were serially diluted in DMSO and then further diluted in assay buffer to a 10× concentration consisting of 1% DMSO.
HSD17b13 enzyme was diluted in 1× assay buffer to the desired enzyme concentration based on the specific activity of the enzyme lot. 20 uL of diluted enzyme was added to each well along with 2.5 uL of 10× inhibitor solution. Assay plate was incubated at RT for 20 minutes, and then 2.5 uL of a 10× substrate/cofactor mix was added to each well for a final concentration of 50 uM estradiol and 1 mM NAD+. Assay plate was incubated at 37° C. for 3 hours. NAD(P)H-Glo™ Detection System reagents were prepared according to manufacturer's specifications, and 25 uL was added to each well. After incubating for 1 hour at RT, luminescence was measured.

As for `O=C(NC1CCC1)c1ccc2oc(-c3cc(O)c(F)c(F)c3)nc2c1` [Compound 1, N-Cyclobutyl-2-(3,4-difluoro-5-hydroxyphenyl)benzo[d]oxazole-5-carboxamide], the IC50 was below 100 nM.
Next, `O=C(NC1CC1)c1ccc2oc(-c3cc(O)c(F)c(F)c3)nc2c1` [Compound 1.01, N-Cyclopropyl-2-(3,4-difluoro-5-hydroxyphenyl)benzo[d]oxazole-5-carboxamide]: 1000 to 30000 nM; `O=C(NC1CCCC1)c1ccc2oc(-c3cc(O)c(F)c(F)c3)nc2c1` [Compound 1.02, N-Cyclopentyl-2-(3,4-difluoro-5-hydroxyphenyl)benzo[d]oxazole-5-carboxamide]: below 100 nM; `O=C(NC1CCCCC1)c1ccc2oc(-c3cc(O)c(F)c(F)c3)nc2c1` [Compound 1.03, N-Cyclohexyl-2-(3,4-difluoro-5-hydroxyphenyl)benzo[d]oxazole-5-carboxamide]: below 100 nM.
To `CS(=O)(=O)N1CCN(C(=O)c2ccc3oc(-c4cc(O)c(F)c(F)c4)nc3c2)CC1` [Compound 1.04, (2-(3,4-Difluoro-5-hydroxyphenyl)benzo[d]oxazol-5-yl)(4-(methylsulfonyl)piperazin-1-yl)methanone] belongs 1000 to 30000 nM; to `CS(=O)(=O)NC1CN(C(=O)c2ccc3oc(-c4cc(O)c(F)c(F)c4)nc3c2)C1` [Compound 1.05, N-(1-(2-(3,4-Difluoro-5-hydroxyphenyl)benzo[d]oxazole-5-carbonyl)azetidin-3-yl)methanesulfonamide], 100 to 1000 nM.
Next, `O=C(c1ccc2oc(-c3cc(O)c(F)c(F)c3)nc2c1)N1CCOCC1` [Compound 1.06, (2-(3,4-Difluoro-5-hydroxyphenyl)benzo[d]oxazol-5-yl)(morpholino)methanone]: 100 to 1000 nM.
As for `O=C(NC1CCOCC1)c1ccc2oc(-c3cc(O)c(F)c(F)c3)nc2c1` [Compound 1.07, 2-(3,4-Difluoro-5-hydroxyphenyl)-N-(tetrahydro-2H-pyran-4-yl)benzo[d]oxazole-5-carboxamide], the IC50 lay in the range of 100 to 1000 nM.
As for `COC1CCN(C(=O)c2ccc3oc(-c4cc(O)c(F)c(F)c4)nc3c2)CC1` [Compound 1.08, (2-(3,4-Difluoro-5-hydroxyphenyl)benzo[d]oxazol-5-yl)(4-methoxypiperidin-1-yl)methanone], the IC50 lay within 1000 to 30000 nM.
Take `O=C(NC12CC(C1)C2)c1ccc2oc(-c3cc(O)c(F)c(F)c3)nc2c1` [Compound 1.09, N-(Bicyclo[1.1.1]pentan-1-yl)-2-(3,4-difluoro-5-hydroxyphenyl)benzo[d]oxazole-5-carboxamide]: the IC50 is below 100 nM.
To `O=C(NC12CC(C1)C2)c1ccc2oc(-c3cc(O)c(F)c(C(F)(F)F)c3)nc2c1` [Compound 1.10, N-(Bicyclo[1.1.1]pentan-1-yl)-2-(4-fluoro-3-hydroxy-5-(trifluoromethyl)phenyl)benzo[d]oxa-zole-5-carboxamide] belongs below 100 nM; to `O=C(NC12CC(O)(C1)C2)c1ccc2oc(-c3cc(O)c(F)c(C(F)(F)F)c3)nc2c1` [Compound 1.11, 2-(4-Fluoro-3-hydroxy-5-(trifluoromethyl)phenyl)-N-(3-hydroxybicyclo[1.1.1]pentan-1-yl)benzo[d]oxazole-5-carboxamide], 100 to 1000 nM; to `O=C(NC12CC(C1)C2)c1ccc2oc(-c3cc(C(F)(F)F)cc(O)c3F)nc2c1` [Compound 1.12, N-(Bicyclo[1.1.1]pentan-1-yl)-2-(2-fluoro-3-hydroxy-5-(trifluoromethyl)phenyl)benzo[d]oxa-zole-5-carboxamide], below 100 nM.
To `O=C(NC12CC(C1)C2)c1ccc2oc(-c3cc(C(F)(F)F)c(F)c(O)c3F)nc2c1` [Compound 1.13, N-(Bicyclo[1.1.1]pentan-1-yl)-2-(2,4-difluoro-3-hydroxy-5-(trifluoromethyl)phenyl)benzo[d]oxa-zole-5-carboxamide] belongs below 100 nM; to `O=C(NC1CCC1)c1ccc2oc(-c3cc(C(F)(F)F)c(F)c(O)c3F)nc2c1` [Compound 1.14, N-Cyclobutyl-2-(2,4-difluoro-3-hydroxy-5-(trifluoromethyl)phenyl)benzo[d]oxa-zole-5-carboxamide], below 100 nM.
As to `CN(C(=O)c1ccc2oc(-c3cc(C(F)(F)F)c(F)c(O)c3F)nc2c1)C1CCC1` [Compound 1.15, N-Cyclobutyl-2-(2,4-difluoro-3-hydroxy-5-(trifluoromethyl)phenyl)-N-methylbenzo[d]oxazole-5-carboxamide], the IC50 fell in the range of 100 to 1000 nM.
To `CO[C@H]1C[C@H](NC(=O)c2ccc3oc(-c4cc(C(F)(F)F)c(F)c(O)c4F)nc3c2)C1` [Compound 1.16, 2-(2,4-Difluoro-3-hydroxy-5-(trifluoromethyl)phenyl)-N-(trans-3-methoxycyclobutyl)benzo[d]oxazole-5-carboxamide] belongs 100 to 1000 nM; to `O=C(c1ccc2oc(-c3cc(C(F)(F)F)c(F)c(O)c3F)nc2c1)N1CCC1` [Compound 1.17, Azetidin-1-yl(2-(2,4-difluoro-3-hydroxy-5-(trifluoromethyl)phenyl)benzo[d]oxa-zol-5-yl)methanone], 100 to 1000 nM; to `CN1CC(NC(=O)c2ccc3oc(-c4cc(C(F)(F)F)c(F)c(O)c4F)nc3c2)C1` [Compound 1.18, 2-(2,4-Difluoro-3-hydroxy-5-(trifluoromethyl)phenyl)-N-(1-methylazetidin-3-yl)benzo[d]oxazole-5-carboxamide], 1000 to 30000 nM.
Next, `O=C(NC1COC1)c1ccc2oc(-c3cc(C(F)(F)F)c(F)c(O)c3F)nc2c1` [Compound 1.19, 2-(2,4-Difluoro-3-hydroxy-5-(trifluoromethyl)phenyl)-N-(oxetan-3-yl)benzo[d]oxazole-5-carboxamide]: 100 to 1000 nM; `CS(=O)(=O)N1CC(NC(=O)c2ccc3oc(-c4cc(C(F)(F)F)c(F)c(O)c4F)nc3c2)C1` [Compound 1.20, 2-(2,4-Difluoro-3-hydroxy-5-(trifluoromethyl)phenyl)-N-(1-(methylsulfonyl)azetidin-3-yl)benzo[d]oxazole-5-carboxamide]: 100 to 1000 nM.
As for `O=C(NC12COC(C1)C2)c1ccc2oc(-c3cc(C(F)(F)F)c(F)c(O)c3F)nc2c1` [Compound 1.21, N-(2-Oxabicyclo[2.1.1]hexan-4-yl)-2-(2,4-difluoro-3-hydroxy-5-(trifluoromethyl)phenyl)benzo[d]oxa-zole-5-carboxamide], the IC50 lay within 100 to 1000 nM.
To `O=C(NC1CCCC1)c1ccc2oc(-c3cc(C(F)(F)F)c(F)c(O)c3F)nc2c1` [Compound 1.22, N-Cyclopentyl-2-(2,4-difluoro-3-hydroxy-5-(trifluoromethyl)phenyl)benzo[d]oxa-zole-5-carboxamide] belongs below 100 nM.
To `CC1(NC(=O)c2ccc3oc(-c4cc(C(F)(F)F)c(F)c(O)c4F)nc3c2)CCC1` [Compound 1.23, 2-(2,4-Difluoro-3-hydroxy-5-(trifluoromethyl)phenyl)-N-(1-methylcyclobutyl)benzo[d]oxazole-5-carboxamide] belongs below 100 nM; to `O=C(NC12CC(C1)C2)c1cc2nc(-c3cc(O)c(F)c(C(F)(F)F)c3)oc2cn1` [Compound 1.24, N-(Bicyclo[1.1.1]pentan-1-yl)-2-(4-fluoro-3-hydroxy-5-(trifluoromethyl)phenyl)oxazolo[5,4-c]pyridine-6-carboxamide], below 100 nM; to `N#CC1(NC(=O)c2ccc3oc(-c4cc(C(F)(F)F)c(F)c(O)c4F)nc3c2)CCC1` [Compound 1.25, N-(1-Cyanocyclobutyl)-2-(2,4-difluoro-3-hydroxy-5-(trifluoromethyl)phenyl)benzo[d]oxa-zole-5-carboxamide], below 100 nM.
Next, `COCC1(NC(=O)c2ccc3oc(-c4cc(C(F)(F)F)c(F)c(O)c4F)nc3c2)CCC1` [Compound 1.26, 2-(2,4-Difluoro-3-hydroxy-5-(trifluoromethyl)phenyl)-N-(1-(methoxymethyl)cyclobutyl)benzo[d] oxazole-5-carboxamide]: below 100 nM; `O=C(NC1(CCO)CCC1)c1ccc2oc(-c3cc(C(F)(F)F)c(F)c(O)c3F)nc2c1` [Compound 1.27, 2-(2,4-Difluoro-3-hydroxy-5-(trifluoromethyl)phenyl)-N-(1-(2-hydroxyethyl)cyclobutyl)benzo[d]oxa-zole-5-carboxamide]: 100 to 1000 nM.
With `O=C(NC1(CO)CCC1)c1ccc2oc(-c3cc(C(F)(F)F)c(F)c(O)c3F)nc2c1` [Compound 1.28, 2-(2,4-Difluoro-3-hydroxy-5-(trifluoromethyl)phenyl)-N-(1-(hydroxymethyl)cyclobutyl)benzo[d] oxazole-5-carboxamide], the IC50 lay within 100 to 1000 nM.
To `N#CCC1(NC(=O)c2ccc3oc(-c4cc(C(F)(F)F)c(F)c(O)c4F)nc3c2)CCC1` [Compound 1.29, N-(1-(Cyanomethyl)cyclobutyl)-2-(2,4-difluoro-3-hydroxy-5-(trifluoromethyl)phenyl)benzo[d]oxa-zole-5-carboxamide] belongs below 100 nM.
